Results as given in patent US11591322B2, “Certain chemical compositions and methods of use thereof” (Algen Biotechnologies, Inc., priority 2020, dated 2023).

Key:
HepG2 cells = experiment: Cancer cell viability assay (CellTiter-Glo 2.0), HepG2; format: cell-based, Human; settings: HepG2, 72 hours compound treatment
Description: (§1) Human liver cancer cell lines HepG2, Hep3B, Huh7, and SK-HEP-1 cells were rinsed and trypsinized with 0.25% trypsin (Corning #25-053-CI) in an incubator at 37° C. until detached. The cells were resuspended and seeded in 96-well plates to a density of 5,000 cells per well. Following cell adhesion, compounds were added to a final concentration of 2× dilution. 72 hours following compound treatment, CellTiter-Glo® 2.0 was added to the well in a 2:1 ratio of media/CellTiter-Glo® 2.0. The plates were shielded from light, shaken for 2 minutes, and incubated for 10 minutes. Luminescence was measured on a microplate reader and EC50 values were calculated using Prism 9 software.

CDK9/CyclinT = CDK9/CyclinT (Homo sapiens (Human), UniProt P50750); experiment: CDK9 biochemical assay (Kinase-Glo Max luminescence); settings: 30° C. for 45 minutes
Chain of CDK9/CyclinT (P50750 whole entry): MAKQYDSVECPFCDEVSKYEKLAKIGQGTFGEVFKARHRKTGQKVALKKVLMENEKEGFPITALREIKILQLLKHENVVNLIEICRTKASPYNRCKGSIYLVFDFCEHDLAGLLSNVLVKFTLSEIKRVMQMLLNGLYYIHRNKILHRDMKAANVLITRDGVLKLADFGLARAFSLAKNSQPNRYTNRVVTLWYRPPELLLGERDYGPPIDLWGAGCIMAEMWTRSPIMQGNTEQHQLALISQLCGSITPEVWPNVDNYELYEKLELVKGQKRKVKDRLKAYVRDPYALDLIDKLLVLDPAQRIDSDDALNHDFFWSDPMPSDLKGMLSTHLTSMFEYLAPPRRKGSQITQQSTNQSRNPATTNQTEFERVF
Chain of CDK9/CyclinT (O60563 whole entry partner): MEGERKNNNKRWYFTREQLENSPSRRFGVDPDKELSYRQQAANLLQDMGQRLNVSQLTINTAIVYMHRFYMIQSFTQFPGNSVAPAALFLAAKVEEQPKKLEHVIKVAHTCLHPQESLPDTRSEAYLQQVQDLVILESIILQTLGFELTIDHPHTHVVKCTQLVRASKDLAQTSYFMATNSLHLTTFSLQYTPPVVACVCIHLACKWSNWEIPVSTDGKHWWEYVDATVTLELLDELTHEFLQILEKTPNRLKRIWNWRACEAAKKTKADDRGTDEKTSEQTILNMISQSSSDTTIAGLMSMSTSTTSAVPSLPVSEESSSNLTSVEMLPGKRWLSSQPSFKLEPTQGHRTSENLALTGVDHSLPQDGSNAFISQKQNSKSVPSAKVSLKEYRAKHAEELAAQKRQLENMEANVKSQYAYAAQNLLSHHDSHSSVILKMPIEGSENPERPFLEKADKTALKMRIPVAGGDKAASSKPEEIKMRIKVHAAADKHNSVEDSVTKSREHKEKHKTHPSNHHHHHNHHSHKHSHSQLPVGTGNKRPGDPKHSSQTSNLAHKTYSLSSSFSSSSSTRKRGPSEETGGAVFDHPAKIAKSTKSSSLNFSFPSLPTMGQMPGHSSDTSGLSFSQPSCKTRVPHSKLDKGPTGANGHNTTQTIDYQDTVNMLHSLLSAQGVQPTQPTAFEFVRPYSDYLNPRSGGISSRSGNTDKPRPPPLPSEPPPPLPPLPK
Description: To each well of a 96-well plate was added 5× kinase assay buffer with 10 mM DTT (6 μL), 500 μM ATP (1 μL), 5×CDK substrate (10 μL), and water (8 μL). 5 μL of compound were added to the test and positive control groups, while 5 μL of solvent was added to the blank groups. 100 ng of CDK9/CyclinT in 20 μL water was added to the test and positive control groups, while 20 μL of 1× kinase assay buffer was added to the blank groups. The reaction mixtures were incubated at 30° C. for 45 minutes, and 50 μL of Kinase-Glo® Max was added to each well and the plates were shielded from light and incubated for 15 minutes at room temperature. Luminescence was measured on a microplate reader and IC50 values were calculated using Prism 9 software.

Hep3B cells = experiment: Cancer cell viability assay (CellTiter-Glo 2.0), Hep3B; format: cell-based, Human; settings: 72 hours compound treatment
Description: as §1

| SMILES | EC50 (HepG2 cells) [nM] | IC50 (CDK9/CyclinT) [nM] | EC50 (Hep3B cells) [nM] |
| --- | --- | --- | --- |
| C[C@H](Cc1nnn[nH]1)NC1CCC(Nc2cc(-c3cccc(NCC4(C#N)CCOCC4)n3)c(Cl)cn2)CC1 (stereo partly drawn) [Compound 12, 4-(((2′-(((1R,4R)-4-(((R)-1-(1H-tetrazol-5-yl)propan-2-yl)amino)cyclohexyl)amino)-5′-chloro-[2,4′-bipyridin]-6-yl)amino)methyl)tetrahydro-2H-pyran-4-carbonitrile] | > 1000 | > 10 |  |
| C[C@@H](Cc1nnn[nH]1)NC1CCC(Nc2cc(-c3cccc(NCC4(C#N)CCOCC4)n3)c(Cl)cn2)CC1 (stereo partly drawn) [Compound 13, 4-(((2′-(((1S,4R)-4-(((S)-1-(1H-tetrazol-5-yl)propan-2-yl)amino)cyclohexyl)amino)-5′-chloro-[2,4′-bipyridin]-6-yl)amino)methyl)tetrahydro-2H-pyran-4-carbonitrile] | > 1000 | > 10 |  |
| CCOC(=O)O[C@H](C)n1nnc(COC[C@H](C)N[C@H]2CC[C@H](Nc3cc(-c4cccc(NCC5(C#N)CCOCC5)n4)c(Cl)cn3)CC2)n1 [Compound 22, (R)-1-(5-(((S)-2-(((1r,4S)-4-((5′-chloro-6-(((4-cyanotetrahydro-2H-pyran-4-yl)methyl)amino)-[2,4′-bipyridin]-2′-yl)amino)cyclohexyl)amino)propoxy)methyl)-2H-tetrazol-2-yl)ethyl ethyl carbonate] | > 1000 | 2.5 to 5 | 500 to 1000 |
| CCOC(=O)O[C@@H](C)n1nnc(COC[C@@H](C)N[C@H]2CC[C@H](Nc3cc(-c4cccc(NCC5(C#N)CCOCC5)n4)c(Cl)cn3)CC2)n1 [Compound 24, (S)-1-(5-(((R)-2-(((1r,4R)-4-((5′-chloro-6-(((4-cyanotetrahydro-2H-pyran-4-yl)methyl)amino)-[2,4′-bipyridin]-2′-yl)amino)cyclohexyl)amino)propoxy)methyl)-2H-tetrazol-2-yl)ethyl ethyl carbonate] | > 1000 | > 10 | > 1000 |
| CCOC(=O)O[C@@H](C)n1nnc(COC[C@H](C)N[C@H]2CC[C@H](Nc3cc(-c4cccc(NCC5(C#N)CCOCC5)n4)c(Cl)cn3)CC2)n1 [Compound 25, (S)-1-(5-(((S)-2-(((1r,4S)-4-((5′-chloro-6-(((4-cyanotetrahydro-2H-pyran-4-yl)methyl)amino)-[2,4′-bipyridin]-2′-yl)amino)cyclohexyl)amino)propoxy)methyl)-2H-tetrazol-2-yl)ethyl ethyl carbonate] | > 1000 | > 10 | > 1000 |
| CCOC(=O)O[C@H](C)n1nnnc1COC[C@H](C)N[C@H]1CC[C@H](Nc2cc(-c3cccc(NCC4(C#N)CCOCC4)n3)c(Cl)cn2)CC1 [Compound 28, (R)-1-(5-(((S)-2-(((1r,4S)-4-((5′-chloro-6-(((4-cyanotetrahydro-2H-pyran-4-yl)methyl)amino)-[2,4′-bipyridin]-2′-yl)amino)cyclohexyl)amino)propoxy)methyl)-1H-tetrazol-1-yl)ethyl ethyl carbonate] | > 1000 | > 10 | > 1000 |
| C[C@@H](COCc1nnn(C)n1)N[C@H]1CC[C@H](Nc2cc(-c3cccc(NCC4(C#N)CCOCC4)n3)c(Cl)cn2)CC1 [Compound 34, 4-(((5′-chloro-2′-(((1S,4r)-4-(((S)-1-((2-methyl-2H-tetrazol-5-yl)methoxy)propan-2-yl)amino)cyclohexyl)amino)-[2,4′-bipyridin]-6-yl)amino)methyl)tetrahydro-2H-pyran-4-carbonitrile] | < 100 | > 10 | 100 to 500 |
| CC(COCCNS(=O)(=O)C(F)F)NC1CCC(Nc2cc(-c3cccc(NCC4(C#N)CCOCC4)n3)c(Cl)cn2)CC1 (centres unmarked) [Compound 41, N-(2-(2-(((1r,4r)-4-((5′-chloro-6-(((4-cyanotetrahydro-2H-pyran-4-yl)methyl)amino)-[2,4′-bipyridin]-2′-yl)amino)cyclohexyl)amino)propoxy)ethyl)-1,1-difluoromethanesulfonamide] | < 100 | 5 to 10 | 100 to 500 |
| COC[C@@H](C)NC1CCC(Nc2cc(-c3cccc(NCC4(C#N)CCOCC4)n3)c(Cl)cn2)CC1 (some centres unmarked) [NVP-2, reference compound] |  | 2.5 to 5 |  |

Results, then the compound that gave them:

| EC50 (HepG2 cells) [nM] | IC50 (CDK9/CyclinT) [nM] | EC50 (Hep3B cells) [nM] | SMILES |
| --- | --- | --- | --- |
| > 1000 | < 2.5 | 500 to 1000 | CCOC(=O)O[C@H](C)n1nnc(COC[C@@H](C)N[C@H]2CC[C@H](Nc3cc(-c4cccc(NCC5(C#N)CCOCC5)n4)c(Cl)cn3)CC2)n1 [Compound 21, (R)-1-(5-(((R)-2-(((1r,4R)-4-((5′-chloro-6-(((4-cyanotetrahydro-2H-pyran-4-yl)methyl)amino)-[2,4′-bipyridin]-2′-yl)amino)cyclohexyl)amino)propoxy)methyl)-2H-tetrazol-2-yl)ethyl ethyl carbonate] |
| > 1000 | < 2.5 | > 1000 | CCOC(=O)O[C@H](C)n1nnnc1COC[C@@H](C)N[C@H]1CC[C@H](Nc2cc(-c3cccc(NCC4(C#N)CCOCC4)n3)c(Cl)cn2)CC1 [Compound 27, (R)-1-(5-(((R)-2-(((1r,4R)-4-((5′-chloro-6-(((4-cyanotetrahydro-2H-pyran-4-yl)methyl)amino)-[2,4′-bipyridin]-2′-yl)amino)cyclohexyl)amino)propoxy)methyl)-1H-tetrazol-1-yl)ethyl ethyl carbonate] |
| 500 to 1000 | < 2.5 | > 1000 | CCOC(=O)O[C@@H](C)n1nnnc1COC[C@@H](C)N[C@H]1CC[C@H](Nc2cc(-c3cccc(NCC4(C#N)CCOCC4)n3)c(Cl)cn2)CC1 [Compound 30, (S)-1-(5-(((R)-2-(((1r,4R)-4-((5′-chloro-6-(((4-cyanotetrahydro-2H-pyran-4-yl)methyl)amino)-[2,4′-bipyridin]-2′-yl)amino)cyclohexyl)amino)propoxy)methyl)-1H-tetrazol-1-yl)ethyl ethyl carbonate] |
| > 1000 | < 2.5 | > 1000 | CCOC(=O)O[C@@H](C)n1nnnc1COC[C@H](C)N[C@H]1CC[C@H](Nc2cc(-c3cccc(NCC4(C#N)CCOCC4)n3)c(Cl)cn2)CC1 [Compound 31, (S)-1-(5-(((S)-2-(((1r,4S)-4-((5′-chloro-6-(((4-cyanotetrahydro-2H-pyran-4-yl)methyl)amino)-[2,4′-bipyridin]-2′-yl)amino)cyclohexyl)amino)propoxy)methyl)-1H-tetrazol-1-yl)ethyl ethyl carbonate] |
| 100 to 500 | < 2.5 | 500 to 1000 | C[C@H](COCc1nnnn1C)N[C@H]1CC[C@H](Nc2cc(-c3cccc(NCC4(C#N)CCOCC4)n3)c(Cl)cn2)CC1 [Compound 36, 4-(((5′-chloro-2′-(((1R,4r)-4-(((R)-1-((1-methyl-1H-tetrazol-5-yl)methoxy)propan-2-yl)amino)cyclohexyl)amino)-[2,4′-bipyridin]-6-yl)amino)methyl)tetrahydro-2H-pyran-4-carbonitrile] |
| 100 to 500 | < 2.5 | 100 to 500 | C[C@@H](COCc1nnnn1C)N[C@H]1CC[C@H](Nc2cc(-c3cccc(NCC4(C#N)CCOCC4)n3)c(Cl)cn2)CC1 [Compound 37, 4-(((5′-chloro-2′-(((1S,4r)-4-(((S)-1-((1-methyl-1H-tetrazol-5-yl)methoxy)propan-2-yl)amino)cyclohexyl)amino)-[2,4′-bipyridin]-6-yl)amino)methyl)tetrahydro-2H-pyran-4-carbonitrile] |
